Data as given in patent publication US20030215888A1, “Androgen receptor overexpressing skeletal myoblasts” (Pfizer Inc., priority 2002, published 2003).
Where two headings read alike, the source gives them in different places.

Assays:
[1] = tested on: C2hAR57 cells; assay: [3H]-thymidine uptake assay, C2hAR57 cells; type: cell-based, mouse; conditions: 48 hours exposure
Description: After 48 hours exposure to the test agents, medium containing 0.1 μCi [^3H]-thymidine (82 Ci/mmol, Amersham, Buckinghamshire, UK) per well was added and incubation was continued for two additional hours at 37° C. The assay was terminated by aspirating the culture medium and washing with ice-cold phosphate buffered saline followed by 5% trichloroacetic acid. The cells where then lysed by applying 0.3 N NaOH (75 μl per well) followed by 0.3 N HCl (75 μl per well) to neutralize the NaOH. The radioactivity in 50-μl aliquots was determined by liquid scintillation counting in 96-well plates (Packard Instrument Corporation) using a TopCount™ Scintillation Counter (Packard Instrument Corporation).

[2] = tested on: C2C12 cells; conditions: C2C12, addition of DHT, fusion medium
Description: (§4) Fusion medium was changed daily. C2hAR57 cells at low density in high mitogen growth medium appeared as small, adherent mononuclear cells.

[3] = tested on: IGFBP4 transcripts in C2C12 cells; conditions: C2C12, 100 nM DHT
Description: (§1) Day zero samples were harvested just prior to the induction of differentiation. […] Total RNA was isolated using Trizol®, and RNA concentration was determined by UV spectroscopy. Samples containing 20 micrograms of total RNA were separated by electrophoresis on formaldehyde-containing agarose gels, transferred to Duralon-UV™ nylon membrane (Stratagene, La Jolla, Calif.) by capillary blotting in 5×SSPE and probed sequentially for IGFBP4, IGF-II and 18S ribosomal RNA. DNA fragments used for probes were generated by reverse transcription polymerase chain reaction using rat skeletal muscle poly A+ RNA as template. […] Probes were denatured by boiling and used at a concentration of 1-2×10^6 dpm/ml hybridization solution (50% formamide, 6×SSC, 1% SDS, 15×Denhardt's solution, 0.1 mg/ml sheared salmon sperm DNA). Following hybridization at 42° C. for at least 24 hours, the membranes were washed to moderate stringency with 0.3×SSC/0.1% SDS at 55° C. […] Between successive probings, the membrane was stripped by incubation at 70° C. for one to three hours in a solution consisting of 5 mM Tris HCl, pH 8, 0.2 mM Na2EDTA, 0.05% sodium pyrophosphate and 0.1×Denhardt's solution. The imaging plate was exposed for 42 hours and 90 minutes to the IGFBP4 and IGF-II hybridizations, respectively. The 18S signal was used to normalize the hybridization signals from each of the other probes.

[4] = tested on: IGF-II transcripts in C2hAR57 cells; conditions: C2hAR57, 100 nM DHT
Description: as §1

[5] = tested on: IGF-II transcripts in C2C12 cells; conditions: C2C12, 100 nM DHT
Description: as §1

[6] = tested on: IGFBP4 transcripts in C2hAR57 cells; conditions: C2hAR57, 100 nM DHT
Description: as §1

[7] = tested on: C2C12 cells; conditions: C2C12, 100 nM DHT, 24 hours in fusion medium
Description: (§2) All cultures were approximately 80% confluent at the time of mitogen withdrawal. After 24 hour in fusion medium, the medium containing nonadherent cells was transferred to centrifuge tubes. The dishes were then rinsed with phosphate buffered saline and adherent cells were collected by trypsinization. Cell pellets were recovered by centrifugation and lysed in 50 mM Tris HCl, pH 8, 100 mM Na2EDTA, 0.5% sodium dodecylsulfate. […] DNA yields from pools of five dishes were determined by UV spectroscopy at 260 nm. Aliquots corresponding to 10 μg DNA were analyzed by electrophoresis on a 1% agarose gel in TBE buffer and visualized by ethidium bromide fluorescence with UV transillumination.

[8] = tested on: C2hAR57 cells; conditions: C2hAR57, 100 nM DHT
Description: as §2

[9] = tested on: C2C12 cells; conditions: for protein content / protein content, percentage difference from vehicle: 3 days in fusion medium
Description: (§3) Procedure A—Three days in fusion medium. C2hAR57 cells were plated in 12-well tissue culture plates (Costar, Corning, N.Y.) at 4×10^4 cells/well in high mitogen growth medium.

[10] = tested on: C2hAR57 cells; conditions: for protein content / protein content, percentage difference from vehicle: 3 days in fusion medium
Description: as §3

[11] = tested on: C2hAR57 cells; conditions: for Change in protein content: during 24 hours in fusion medium
Description: Procedure B—24 Hours in fusion medium. […] Cell extracts were prepared from the second set of cultures after 24 hours in fusion medium (day one). The change in protein content was determined by subtracting the average protein content for each treatment on day zero from the average protein content on day one.

[12] = tested on: C2hAR57 cells; conditions: C2hAR57, 100 nM DHT, 1, 2 or 3 days in fusion medium
Description: as §4

Q: For C[C@]12CCC(=O)C[C@@H]1CC[C@@H]1[C@@H]2CC[C@]2(C)[C@@H](O)CC[C@@H]12 [DHT, dihydrotestosterone], which “effect on [3H]-thymidine uptake” value [1] is on record?
A: dose-dependent inhibitory effects

Q: And the “rate and extent of myotube formation” value [2]?
A: neither the rate nor the extent of myotube formation in cultures of C2C12 was visibly affected

Q: And the “magnitude of IGFBP4 suppression” value ([3]; 0 days in fusion medium)?
A: 20%

Q: And the “magnitude of IGFBP4 suppression” value ([3]; 1 day in fusion medium)?
A: 51%

Q: And the “magnitude of IGFBP4 suppression” value ([3]; 2 days in fusion medium)?
A: 44%

Q: What about the “increase of IGF-II transcripts” value ([4]; 0 days in fusion medium) of the same compound?
A: 10.2 ×

Q: What about the “increase of IGF-II transcripts” value ([4]; 1 day in fusion medium) of the same compound?
A: 3.6 ×

Q: And the “increase of IGF-II transcripts” value ([4]; 2 days in fusion medium)?
A: 2 ×

Q: What about the “increase of IGF-II transcripts” value ([5]; 0 days in fusion medium) of the same compound?
A: 0.8 ×

Q: And the “increase of IGF-II transcripts” value ([5]; 1 day in fusion medium)?
A: 1.5 ×

Q: And the “increase of IGF-II transcripts” value ([5]; 2 days in fusion medium)?
A: 1.0 ×

Q: What about the “magnitude of IGFBP4 suppression” value ([6]; 0 days in fusion medium) of the same compound?
A: 75%

Q: What about the “magnitude of IGFBP4 suppression” value ([6]; 1 day in fusion medium) of the same compound?
A: 86%

Q: What about the “magnitude of IGFBP4 suppression” value ([6]; 2 days in fusion medium) of the same compound?
A: 70%

Q: What about the “DNA, adherent cells” value [7] of the same compound?
A: 504 μg/dish

Q: What about the “DNA, nonadherent cells (% total)” value [7] of the same compound?
A: 2.9%

Q: What about the “effect on the fraction of nonadherent cells” value [7] of the same compound?
A: did not appreciably alter

Q: And the “reduction of the incidence of apoptotic cells” value ([8]; 24 hour period following mitogen withdrawal)?
A: approximately 75%

Q: And the “DNA, adherent cells” value ([8]; 24 hours in fusion medium)?
A: 528 μg/dish

Q: And the “DNA, nonadherent cells” value ([8]; 24 hours in fusion medium)?
A: 2.6 μg/dish

Q: What about the “DNA, nonadherent cells (% total)” value ([8]; 24 hours in fusion medium) of the same compound?
A: 0.5%

Q: And the protein content ([9]; C2C12, 0.001 nM DHT)?
A: 245 ± 5 micrograms/well

Q: And the “protein content, percentage difference from vehicle” value ([9]; C2C12, 0.001 nM DHT)?
A: +3%

Q: And the protein content ([9]; C2C12, 0.01 nM DHT)?
A: 228 ± 3 micrograms/well

Q: And the “protein content, percentage difference from vehicle” value ([9]; C2C12, 0.01 nM DHT)?
A: −4%

Q: What about the protein content ([9]; C2C12, 0.1 nM DHT) of the same compound?
A: 246 ± 4 micrograms/well

Q: And the “protein content, percentage difference from vehicle” value ([9]; C2C12, 0.1 nM DHT)?
A: +3%

Q: And the protein content ([9]; C2C12, 1 nM DHT)?
A: 256 ± 9 micrograms/well

Q: What about the “protein content, percentage difference from vehicle” value ([9]; C2C12, 1 nM DHT) of the same compound?
A: +7%

Q: What about the protein content ([9]; C2C12, 10 nM DHT) of the same compound?
A: 243 ± 6 micrograms/well

Q: And the “protein content, percentage difference from vehicle” value ([9]; C2C12, 10 nM DHT)?
A: +2%

Q: What about the protein content ([9]; C2C12, 100 nM DHT) of the same compound?
A: 243 ± 6 micrograms/well

Q: What about the “protein content, percentage difference from vehicle” value ([9]; C2C12, 100 nM DHT) of the same compound?
A: +2%

Q: And the protein content ([9]; C2C12, 1000 nM DHT)?
A: 278 ± 2 micrograms/well

Q: What about the “protein content, percentage difference from vehicle” value ([9]; C2C12, 1000 nM DHT) of the same compound?
A: +17%

Q: And the “change in total protein content” value ([9]; C2C12 cultures, DHT 10^-12-10^-6 M, Procedure A)?
A: no consistent change

Q: And the protein content ([10]; C2hAR57, 0.001 nM DHT)?
A: 123 ± 6 micrograms/well

Q: What about the “protein content, percentage difference from vehicle” value ([10]; C2hAR57, 0.001 nM DHT) of the same compound?
A: −1%

Q: What about the protein content ([10]; C2hAR57, 0.01 nM DHT) of the same compound?
A: 127 ± 11 micrograms/well

Q: What about the “protein content, percentage difference from vehicle” value ([10]; C2hAR57, 0.01 nM DHT) of the same compound?
A: +3%

Q: And the protein content ([10]; C2hAR57, 0.1 nM DHT)?
A: 152 ± 2 micrograms/well

Q: And the “protein content, percentage difference from vehicle” value ([10]; C2hAR57, 0.1 nM DHT)?
A: +23%

Q: What about the protein content ([10]; C2hAR57, 1 nM DHT) of the same compound?
A: 188 ± 4 micrograms/well

Q: And the “protein content, percentage difference from vehicle” value ([10]; C2hAR57, 1 nM DHT)?
A: +52%

Q: What about the protein content ([10]; C2hAR57, 10 nM DHT) of the same compound?
A: 199 ± 10 micrograms/well

Q: What about the “protein content, percentage difference from vehicle” value ([10]; C2hAR57, 10 nM DHT) of the same compound?
A: +61%

Q: And the protein content ([10]; C2hAR57, 100 nM DHT)?
A: 200 ± 4 micrograms/well

Q: And the “protein content, percentage difference from vehicle” value ([10]; C2hAR57, 100 nM DHT)?
A: +62%

Q: And the protein content ([10]; C2hAR57, 1000 nM DHT)?
A: 212 ± 3 micrograms/well

Q: What about the “protein content, percentage difference from vehicle” value ([10]; C2hAR57, 1000 nM DHT) of the same compound?
A: +71%

Q: What about the “dose-related increase in total protein content” value ([10]; differentiating C2hAR57 cultures, DHT 10^-12-10^-6 M, Procedure A) of the same compound?
A: up to 71%

Q: What about the “Change in protein content” value ([11]; C2hAR57, 0.001 nM DHT) of the same compound?
A: −93 micrograms/well

Q: What about the “Change in protein content” value ([11]; C2hAR57, 0.1 nM DHT) of the same compound?
A: −56 micrograms/well

Q: And the “Change in protein content” value ([11]; C2hAR57, 10 nM DHT)?
A: +48 micrograms/well

Q: And the “Change in protein content” value ([11]; C2hAR57, 1000 nM DHT)?
A: +61 micrograms/well

Q: What about the “effect on net loss of protein seen with vehicle” value ([11]; C2hAR57, increasing concentrations of DHT, Procedure B) of the same compound?
A: ameliorated and even reversed

Q: What about the “rate of myotube formation” value [12] of the same compound?
A: more rapidly
